Measurements reported in the NIST ThermoML archive (doi:10.1021/acs.jced.6b00812).

Experiment: molar heat capacity at constant pressure; mn = molality of the nth substance listed, in mol/kg
Settings: 100 kPa, Liquid, Small sample (50 mg) DSC

[Ca+2].[Cl-].[Cl-] [calcium chloride] + O
molar heat capacity at constant pressure [J/K/mol]
Settings	m1 = 0.49	m1 = 1.17	m1 = 1.83	m1 = 2.51	m1 = 3.14	m1 = 3.8	m1 = 4.41	m1 = 5.1	m1 = 5.76	m1 = 6.39
168.15 K	–	–	–	–	–	56.81	58.42	–	–	–
178.15 K	–	–	–	–	–	57.77	59.16	–	–	–
188.15 K	–	–	–	–	–	58.49	59.66	–	–	–
198.15 K	–	–	–	–	–	59.45	60.4	–	–	–
208.15 K	–	–	–	–	–	60.41	61.15	–	–	–
218.15 K	–	–	–	–	–	61.37	61.9	–	–	–
228.15 K	–	–	–	–	62.08	62.09	62.64	–	–	–
238.15 K	–	–	–	63.47	63	63.05	63.39	64.08	–	–
248.15 K	–	68.18	65.68	64.35	63.92	63.77	64.13	64.6	–	–
258.15 K	72.68	68.77	66.51	65.23	64.61	64.48	64.63	65.37	66.09	–
268.15 K	72.49	69.37	67.14	65.89	65.3	65.2	65.38	65.89	66.62	–
278.15 K	72.68	69.77	67.77	66.55	65.76	65.68	65.87	66.66	67.42	67.93
288.15 K	72.68	69.97	68.19	66.99	66.22	66.16	66.37	67.18	67.96	68.2
298.15 K	72.87	70.37	68.61	67.43	66.91	66.64	67.12	67.7	68.49	68.76

[Cl-].[Cl-].[Mg+2] [magnesium chloride] + O
molar heat capacity at constant pressure [J/K/mol]
Settings	m1 = 0.58	m1 = 1.12	m1 = 1.67	m1 = 2.19	m1 = 2.74	m1 = 3.36	m1 = 3.88	m1 = 4.46	m1 = 5.04	m1 = 5.63
168.15 K	–	–	–	–	–	49.33	49.35	–	–	–
178.15 K	–	–	–	–	–	51.34	51.42	51.55	–	–
188.15 K	–	–	–	–	–	53.36	53.27	53.21	–	–
198.15 K	–	–	–	–	–	55.38	55.11	54.88	–	–
208.15 K	–	–	–	–	–	57.17	56.72	56.54	–	–
218.15 K	–	–	–	–	–	58.74	58.34	57.97	57.68	57.28
228.15 K	–	–	–	62	61.04	60.09	59.49	59.15	58.66	58.54
238.15 K	–	–	65.07	63.46	62.34	61.43	60.87	60.34	59.88	59.54
248.15 K	–	68.59	65.88	64.3	63.42	62.33	61.8	61.29	60.61	60.55
258.15 K	72.24	68.98	66.69	65.35	64.29	63.23	62.49	62	61.59	61.3
268.15 K	72.24	69.57	67.5	66.19	65.16	64.12	63.41	62.72	62.08	62.06
278.15 K	72.24	69.96	67.9	66.61	65.59	64.57	63.87	63.19	62.81	62.56
288.15 K	72.43	70.16	68.31	67.23	66.02	65.02	64.33	63.67	63.3	63.06
298.15 K	72.43	70.55	68.71	67.44	66.45	65.47	64.79	64.14	63.55	63.56

[Cl-].[K+] [potassium chloride] + O
molar heat capacity at constant pressure [J/K/mol]
Settings	m1 = 0.53	m1 = 0.97	m1 = 1.41	m1 = 1.86	m1 = 2.34	m1 = 2.79	m1 = 3.25	m1 = 3.72	m1 = 4.15	m1 = 4.62
238.15 K	–	–	–	–	–	–	–	–	65.84	–
248.15 K	–	–	–	70.06	–	68.17	67.44	66.86	66.5	–
258.15 K	74.76	72.91	71.45	70.26	69.43	68.59	68.08	67.29	66.94	–
268.15 K	74.2	72.72	71.45	70.46	69.64	68.79	68.29	67.72	67.16	66.63
278.15 K	73.83	72.72	71.64	70.66	69.84	69	68.5	67.93	67.38	66.85
288.15 K	73.83	72.72	71.64	70.66	69.84	69.21	68.71	67.93	67.6	67.08
298.15 K	73.83	72.72	71.64	70.86	70.04	69.42	68.71	68.15	67.6	67.08
